Experimental data published in article PMC8510595, “Vanillin enones as selective inhibitors of the cancer associated carbonic anhydrase isoforms IX and XII. The out of the active site pocket for the design of selective inhibitors?” (Journal of Enzyme Inhibition and Medicinal Chemistry, 2021).
Where two headings read alike, the source gives them in different places.

Columns and labels:
Assay in all cases: stopped-flow CO2 hydration assay
Assay type in all cases: biochemical
[1] = biological target: T1, hCA IX (Homo sapiens, UniProt Q16790); details: read-out: Ki (μM)^b / hCA IX
T1 construct: gene CA9; recombinant, obtained in the authors' laboratory; transmembrane isoform

[2] = biological target: T2, hCA XII (Homo sapiens, UniProt O43570); details: read-out: Ki (μM)^b / hCA XII
T2 construct: gene CA12; recombinant, obtained in the authors' laboratory; transmembrane isoform
T2 sequence (O43570 25-354 limits assumed): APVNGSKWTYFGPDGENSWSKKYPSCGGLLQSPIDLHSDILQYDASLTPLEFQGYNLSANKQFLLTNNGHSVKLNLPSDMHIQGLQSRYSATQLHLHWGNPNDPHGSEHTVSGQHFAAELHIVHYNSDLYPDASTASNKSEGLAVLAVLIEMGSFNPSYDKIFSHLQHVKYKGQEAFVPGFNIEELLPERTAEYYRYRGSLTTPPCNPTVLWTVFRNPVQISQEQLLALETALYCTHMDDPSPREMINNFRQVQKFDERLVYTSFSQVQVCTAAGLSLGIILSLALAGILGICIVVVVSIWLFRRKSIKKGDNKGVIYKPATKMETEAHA

[3] = biological target: T3, hCA II (Homo sapiens, UniProt P00918)
T3 construct: gene CA2; recombinant, obtained in the authors' laboratory; cytosolic

[4] = biological target: T4, hCA I (Homo sapiens, UniProt P00915); details: read-out: Ki (μM)^b / hCA I
T4 construct: gene CA1; recombinant, obtained in the authors' laboratory; cytosolic
T4 sequence (P00915 2-261): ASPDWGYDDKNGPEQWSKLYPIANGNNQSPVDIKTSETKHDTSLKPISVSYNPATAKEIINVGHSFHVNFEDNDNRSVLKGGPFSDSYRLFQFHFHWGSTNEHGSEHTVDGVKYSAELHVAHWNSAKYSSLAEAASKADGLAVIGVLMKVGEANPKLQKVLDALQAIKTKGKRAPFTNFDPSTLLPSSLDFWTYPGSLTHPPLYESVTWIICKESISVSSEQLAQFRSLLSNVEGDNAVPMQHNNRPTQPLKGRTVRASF

**Q.** Which Ki [1] does the source give for CCC(=O)/C=C/c1ccc(O)c(OC)c1 [compound 4, (E)-1–(4-Hydroxy-3-methoxyphenyl)pent-1-en-3-one] here?
**A.** 32 µM

**Q.** And the Ki [2]?
**A.** 2.5 µM

**Q.** What about the Ki ([3]; read-out: Ki (μM)^b / hCA I) of the same molecule?
**A.** > 100 µM

**Q.** What about the Ki [4] of the same molecule?
**A.** > 100 µM

**Q.** What does the source list for COc1cc(/C=C/C(=O)C[C@@H]2O[C@H](CO)[C@@H](O)[C@H](O)[C@H]2O)ccc1O [compound 1, 1-(β-D-glucopyranosyl)-4–(4-hydroxy-3-methoxyphenyl)but-3-en-2-one]?
**A.** Ki [1]: 30.8 µM; Ki [2]: 4.8 µM; Ki ([3]; read-out: Ki (μM)^b / hCA II): > 100 µM; Ki [4]: 71.6 µM

**Q.** For COc1cc(/C=C/C(=O)c2ccc(Br)cc2)ccc1O [compound 7, (E)-1–(4-Bromophenyl)-3–(4-hydroxy-3-methoxyphenyl)prop-2-en-1-one], which Ki [1] is on record?
**A.** > 100 µM

**Q.** What about the Ki [2] of the same molecule?
**A.** 6.4 µM

**Q.** And the Ki ([3]; read-out: Ki (μM)^b / hCA II)?
**A.** 82 µM

**Q.** What about the Ki [4] of the same molecule?
**A.** 92.6 µM

**Q.** With COc1cc(/C=C/C(=O)C[C@@H]2O[C@H](CO)[C@H](O)[C@H](O)[C@H]2O)ccc1O [compound 2, 1-(β-D-galactopyranosyl)-4–(4-hydroxy-3-methoxyphenyl)but-3-en-2-one] as the molecule, how does the Ki [1] read?
**A.** 20.8 µM

**Q.** And the Ki [2]?
**A.** 2.5 µM

**Q.** What about the Ki ([3]; read-out: Ki (μM)^b / hCA II) of the same molecule?
**A.** > 100 µM

**Q.** And the Ki [4]?
**A.** 80.5 µM

**Q.** What does the source list for COc1cc(/C=C/C(=O)c2ccccc2)ccc1O [compound 6, (E)-3–(4-Hydroxy-3-methoxyphenyl)-1-phenylprop-2-en-1-one]?
**A.** Ki [1]: 29.1 µM; Ki [2]: 0.63 µM; Ki ([3]; read-out: Ki (μM)^b / hCA II): 96.4 µM; Ki [4]: 76.3 µM

**Q.** What does the source list for COc1cc(/C=C/C(=O)CC(C)C)ccc1O [compound 5, (E)-1–(4-Hydroxy-3-methoxyphenyl)-5-methylhex-1-en-3-one]?
**A.** Ki [1]: 26.3 µM; Ki [2]: 1.7 µM; Ki ([3]; read-out: Ki (μM)^b / hCA I): > 100 µM; Ki [4]: > 100 µM
